tested on: H9C2 cells; experiment: Protective effect on heart cells against t-BHP (LDH release); format: cell-based; conditions: H9C2, t-BHP 400 μM, 2 hours, read-out: EC50 (μM), Cell Protection Effect against t-BHP in Heart Cells
Description: In order to identify the protective effect with regard to heart cells, H9C2 cells were divided into 96-well plates by 1.5×10^4, and cultured for 24 hours. The respective wells were treated with compounds of the examples 3× serial diluted to final concentrations of 30, 10, 3, 1, 0.3, 0.1, 0.03 and 0.01 μM, then incubated for 15 to 20 minutes. After treating with t-BHP with a final concentration of 400 μM, incubation was performed for 2 hours. To confirm the protective effect of each compound, a Cytotoxicity LDH assay kit [Dojindo; CK12] was used to measure the degree of extracellular secretion of LDH. After 2-hour treatment of the cells with t-BHP was completed, 100 μL each of the supernatant in which the cells were placed was collected and moved to a new 96-well plate. 100 μL/well of the assay buffer included in the kit (same amount as the sample) was added, followed by wrapping with foil and reacting for 30 minutes at room temperature. Observing the change of color in the sample, 50 μL/well of stop solution was added, then an iD3 spectrometer was used to measure absorbance at 490 nm and calculate the EC50 values. The EC50 of the compounds of the examples is preferably no more than 1.0 μM, and more preferably no more than 0.3 μM.

SMILES | EC50 [µM]
COCCOCc1cc(NCc2cccs2)c2[nH]c(-c3ccccc3)cc2c1 [Example 43, 5-(2-methoxyethoxymethyl)-2-phenyl-N-(2-thienylmethyl)-1H-indol-7-amine] | 0.3 to 1
CCOC(=O)N1CCC(Nc2cc(COCCOC)cc3cc(-c4ccccc4)[nH]c23)CC1 [Example 44, Ethyl 4-[[5-(2-methoxyethoxymethyl)-2-phenyl-1H-indol-7-yl]amino]piperidine-1-carboxylate] | ≤ 0.3
COCCNc1cc(COCCOC)cc2cc(-c3ccccc3)[nH]c12 [Example 46, 5-(2-methoxyethoxymethyl)-N-(2-methoxyethyl)-2-phenyl-1H-indol-7-amine] | ≤ 0.3
COCCCNc1cc(COCCOC)cc2cc(-c3ccccc3)[nH]c12 [Example 47, 5-(2-methoxyethoxymethyl)-N-(3-methoxypropyl)-2-phenyl-1H-indol-7-amine] | ≤ 0.3
COCCOCc1cc(NC2CCOCC2)c2[nH]c(-c3cccc(F)c3)cc2c1 [Example 48, 2-(3-fluorophenyl)-5-(2-methoxyethoxymethyl)-N-tetrahydropyran-4-yl-1H-indol-7-amine] | ≤ 0.3
COCCOCc1cc(NC2CCCC2)c2[nH]cc(C)c2c1 [Example 49, N-cyclopentyl-5-(2-methoxyethoxymethyl)-3-methyl-1H-indol-7-amine] | 0.3 to 1
COCCOCc1cc(NC2CCCC2)c2[nH]cc(-c3ccccc3)c2c1 [Example 51, N-cyclopentyl-5-(2-methoxyethoxymethyl)-3-phenyl-1H-indol-7-amine] | ≤ 0.3
COCCOCc1cc(NC2CCOCC2)c2[nH]cc(-c3ccccc3)c2c1 [Example 52, 5-(2-methoxyethoxymethyl)-3-phenyl-N-tetrahydropyran-4-yl-1H-indol-7-amine] | ≤ 0.3
COCCOCc1cc(NC2CCOCC2)c2c(c1)cc(-c1ccccc1)n2C [Example 53, 5-((2-methoxyethoxy)methyl)-1-methyl-2-phenyl-N-(tetrahydro-2H-pyran-4-yl)-1H-indol-7-amine] | 0.3 to 1
COCCOCc1cc(NC2CCCC2)c2[nH]c(-c3ccc(Br)cc3)cc2c1 [Example 54, 2-(4-bromophenyl)-N-cyclopentyl-5-((2-methoxyethoxy)methyl)-1H-indol-7-amine] | ≤ 0.3
COCCOCc1cc(NC2CCOCC2)c2[nH]c(-c3ccc(Br)cc3)cc2c1 [Example 55, 2-(4-bromophenyl)-5-((2-methoxyethoxy)methyl)-N-(tetrahydro-2H-pyran-4-yl)-1H-indol-7-amine] | ≤ 0.3
COCCOCc1cc(NC2CCCC2)c2[nH]c(-c3ccc(P(C)(C)=O)cc3)cc2c1 [Example 56, (4-(7-(cyclopentylamino)-5-((2-methoxyethoxy)methyl)-1H-indol-2-yl)phenyl)dimethylphosphine oxide] | ≤ 0.3
COCCOCc1cc(NC2CCOCC2)c2[nH]c(-c3ccc(P(C)(C)=O)cc3)cc2c1 [Example 57] | > 1
COCCOCc1cc(NC2CCCC2)c2[nH]c(-c3ccc(C#CC(C)(C)O)cc3)cc2c1 [Example 58, 4-(4-(7-(cyclopentylamino)-5-((2-methoxyethoxy)methyl)-1H-indol-2-yl)phenyl)-2-methylbut-3-yn-2-ol] | 0.3 to 1
COCCOCc1cc(NC2CCOCC2)c2[nH]c(-c3ccc(C#CC(C)(C)O)cc3)cc2c1 [Example 59, 4-(4-(5-((2-methoxyethoxy)methyl)-7-((tetrahydro-2H-pyran-4-yl)amino)-1H-indol-2-yl)phenyl)-2-methylbut3-yn-2-ol] | 0.3 to 1
COCCOCc1cc(NC2CCOCC2)c2[nH]c(-c3ccc(C)cc3)cc2c1 [Example 60, 5-((2-methoxyethoxy)methyl)-N-(tetrahydro-2H-pyran-4-yl)-2-(p-tolyl)-1H-indol-7-amine] | ≤ 0.3
COCCCOCc1cc(NC2CCCC2)c2[nH]c(-c3ccccc3)cc2c1 [Example 61, N-cyclopentyl-5-((3-methoxypropoxy)methyl)-2-phenyl-1H-indol-7-amine] | ≤ 0.3
COCCCOCc1cc(NC2COC2)c2[nH]c(-c3ccccc3)cc2c1 [Example 62, 5-((3-methoxypropoxy)methyl)-N-(oxetan-3-yl)-2-phenyl-1H-indol-7-amine] | ≤ 0.3
COCCCOCc1cc(NC2CCOCC2)c2[nH]c(-c3ccccc3)cc2c1 [Example 63, 5-((3-methoxypropoxy)methyl)-2-phenyl-N-(tetrahydro-2H-pyran-4-yl)-1H-indol-7-amine] | 0.3 to 1
COCCOCCCc1cc(NC2CCOCC2)c2[nH]c(-c3ccccc3)cc2c1 [Example 65, 5-(3-(2-methoxyethoxy)propyl)-2-phenyl-N-(tetrahydro-2H-pyran-4-yl)-1H-indol-7-amine] | ≤ 0.3
COCCOCCc1cc(NC2CCCC2)c2[nH]c(-c3ccccc3)cc2c1 [Example 66, N-cyclopentyl-5-(2-(2-methoxyethoxy)ethyl)-2-phenyl-1H-indol-7-amine] | ≤ 0.3
COCCOCCc1cc(NC2CCOCC2)c2[nH]c(-c3ccccc3)cc2c1 [Example 67, 5-(2-(2-methoxyethoxy)ethyl)-2-phenyl-N-(tetrahydro-2H-pyran-4-yl)-1H-indole-7-amine] | ≤ 0.3
COCCOCc1cc(N2CCCCC2)c2[nH]c(-c3ccccc3)cc2c1 [Example 68, 5-((2-methoxyethoxy)methyl)-2-phenyl-7-(piperidin-1-yl)-1H-indole] | > 1
